The values below are quoted from earlier work in patent US20060173179A1, “Azabenzoxazoles for the treatment of CNS disorders” (Pfizer Inc, priority 2004, published 2006).

Experiment in series [1]: not given
This is another data set of the same source.

For `O=C1Cc2cc(CCN3CCN(c4nsc5ccccc45)CC3)c(Cl)cc2N1` [Ziprasidone, 5-[2-[4-(1,2-benzisothiazol-3-yl)piperazin-1-yl]ethyl]-6-chloroindolin-2-one], the half-life (in vivo) is 6 to 7 h. Besides, the Oral bioavailability entry (taken with food) is on record as “approximately 60%”. The protein binding result in series [1] is reported as “extensive”.

For orientation: half-life means the time needed for the level to fall by half in the phase considered.
